This is an account of results in ChEMBL document CHEMBL5528064, “Invention of MK-7845, a SARS-CoV-2 3CL Protease Inhibitor Employing a Novel Difluorinated Glutamine Mimic” (J Med Chem, 2024).

Series [1] addresses T1, Cytochrome P450 2C8 (Homo sapiens, UniProt P10632).
T1 sequence (P10632 whole entry): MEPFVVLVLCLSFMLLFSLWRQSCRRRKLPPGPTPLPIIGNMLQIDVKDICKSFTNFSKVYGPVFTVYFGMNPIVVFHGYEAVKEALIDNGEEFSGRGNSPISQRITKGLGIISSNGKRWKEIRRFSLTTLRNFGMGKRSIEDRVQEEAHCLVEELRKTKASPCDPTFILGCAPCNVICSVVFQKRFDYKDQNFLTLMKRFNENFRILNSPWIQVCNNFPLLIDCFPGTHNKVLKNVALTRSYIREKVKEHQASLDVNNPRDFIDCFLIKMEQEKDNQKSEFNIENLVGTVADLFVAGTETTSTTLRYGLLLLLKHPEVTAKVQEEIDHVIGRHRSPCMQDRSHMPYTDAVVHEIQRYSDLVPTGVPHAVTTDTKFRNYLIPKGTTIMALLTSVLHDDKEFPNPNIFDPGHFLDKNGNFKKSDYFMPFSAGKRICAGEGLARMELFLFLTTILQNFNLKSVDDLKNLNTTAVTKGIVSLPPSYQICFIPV
Kind of series: Reversible inhibition of CYP2C8 in human liver microsomes using amodiaquine as substrate incubated for 5 mins in presence of NADPH-generating system by LC-MS/MS analysis. The class given is ADME, Microsome. Background: Liver microsomes are a subcellular fraction often used to study metabolism.

In series [2] the test system is SARS-CoV-2. Kind of series: Antiviral activity against ancestral SARS-CoV-2 WA1/2020 infected in human A549-hACE2-TMPRSS2 cells assessed as inhibition of virus induced cytopathic effect incubated for 72 hrs by celltiter glo assay. Format: functional, organism-based. As to conditions: Severe acute respiratory syndrome coronavirus 2, WA1/2020, A549-hACE2-TMPRSS2, 72 h. A general note: Damage to the host cells serves as the signal in cytopathic effect assays.

Series [3] deals with SARS-CoV-2. The series can be described thus: Antiviral activity against SARS CoV-2 USA-WA1/2020 infected in B6.Cg-Tg(K18-ACE2)2Prlmn/J mouse assessed as protection against body weight loss at 100 to 500 mg/kg, po bid measured daily for 4 days post inoculation. Format: functional, organism-based. As to conditions: Severe acute respiratory syndrome coronavirus 2, dose 100-500 mg/kg, time 4.0 day.

Series [4] is described as follows: Plasma protein binding in monkey assessed as unbound fraction at 1 uM. Format: ADME, cell-free, Macaca mulatta. As to conditions: rhesus monkey.
The target in series [5] is T2, Cytochrome P450 2B6 (Homo sapiens, UniProt P20813).
T2 sequence (P20813 whole entry): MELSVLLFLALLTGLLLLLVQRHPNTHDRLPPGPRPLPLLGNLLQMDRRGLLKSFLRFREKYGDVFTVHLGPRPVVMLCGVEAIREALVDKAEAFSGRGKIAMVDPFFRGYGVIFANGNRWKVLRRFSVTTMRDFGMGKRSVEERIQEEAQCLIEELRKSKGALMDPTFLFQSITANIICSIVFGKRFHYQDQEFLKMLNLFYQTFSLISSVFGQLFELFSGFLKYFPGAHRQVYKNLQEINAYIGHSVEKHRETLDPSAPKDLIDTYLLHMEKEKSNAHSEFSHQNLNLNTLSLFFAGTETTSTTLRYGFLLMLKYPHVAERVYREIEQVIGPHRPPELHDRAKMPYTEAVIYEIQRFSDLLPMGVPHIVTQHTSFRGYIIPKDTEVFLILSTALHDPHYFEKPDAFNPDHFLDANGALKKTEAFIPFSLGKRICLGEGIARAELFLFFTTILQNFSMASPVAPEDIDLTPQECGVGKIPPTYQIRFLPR
Kind of series: Reversible inhibition of CYP2B6 in human liver microsomes using bupropion as substrate incubated for 5 mins in presence of NADPH-generating system by LC-MS/MS analysis. Format: ADME, Microsome.

A short description of series [6]: Volume of distribution at steady state in dog by measuring compound and its epimer at 3 mg/kg, po or 1 mg/kg, iv measured upto 24 hrs by LC-MS analysis. Format: ADME, organism-based, Canis lupus familiaris. As to conditions: in vivo.
Series [7] addresses T2, Cytochrome P450 2B6. Kind of series: Induction of CYP2B6 in human hepatocytes assessed as increase in CYP2B6 mRNA level at 20 uM measured after 48 hrs by PCR analysis relative to control. The class given is ADME, cell-based, Hepatocyte.
Series [8] can be described thus: MRT in dog at 3 mg/kg, po or 1 mg/kg, iv measured upto 24 hrs by LC-MS analysis. Format: ADME, organism-based, Canis lupus familiaris. As to conditions: in vivo.
Series [9] addresses T3, PXR (nuclear receptor subfamily 1 group I member 2) (Homo sapiens, UniProt O75469).
T3 sequence (O75469 whole entry): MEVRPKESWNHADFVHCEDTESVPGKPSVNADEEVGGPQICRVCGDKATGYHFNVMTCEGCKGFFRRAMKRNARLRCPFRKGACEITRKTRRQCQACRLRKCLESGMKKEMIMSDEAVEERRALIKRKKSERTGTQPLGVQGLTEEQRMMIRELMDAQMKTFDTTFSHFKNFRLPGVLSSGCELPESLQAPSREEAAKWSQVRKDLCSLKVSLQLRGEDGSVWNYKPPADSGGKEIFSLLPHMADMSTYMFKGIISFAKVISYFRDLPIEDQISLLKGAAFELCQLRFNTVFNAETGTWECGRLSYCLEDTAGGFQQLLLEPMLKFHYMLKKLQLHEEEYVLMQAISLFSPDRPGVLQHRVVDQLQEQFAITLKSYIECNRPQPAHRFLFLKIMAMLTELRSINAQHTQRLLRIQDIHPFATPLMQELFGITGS
Kind of series: Activation of PXR (unknown origin) assessed as maximal activation at 30 uM relative to control. Format: toxicity. As to conditions: read-out: Activity.

The source made the active and inactive calls. The calls are words filed in the database; no cut-off is given here.

The term IC50 denotes the concentration that inhibits the measured activity by half. The term fraction unbound denotes the share of the substance not bound to proteins or other matrix. One may read the MRT as the average time that molecules of a dose stay in the body. Consider `CNC(=O)C(=O)[C@H](CCC(C)(F)F)NC(=O)[C@@H]1[C@H]2CCC[C@H]2CN1C(=O)[C@@H](NC(=O)OC)C(C)(C)C`, for which the IC50 in [1] was above 200 µM; in series [2], 0.444 µM; in [5], 159 µM. In addition, the outcome in series [3] was Active. For the same compound, the fraction unbound at 1 µM in [4] amounted to 0.5. In series [6], this compound had a Vdss of 0.4 L/kg. Moreover, the Activity in [7] came to 7%. In addition, the MRT in series [8] is 2.5 h. Besides, the Emax at 30 µM in series [9] stood at 29%.
